Source: the supplement of paper PMC8882468
± gives the standard deviation of the averaged measurements.

Assays:
Assay in all cases: CTG-3D luminescence at 96 h relative to day-0 seeding control (ratio to day 0); higher = more growth / less cytotoxicity; PDxO 3D drug screen, 96 h, CTG-3D normalised to day-0 seeding control.
HCI-024 = system: HCI-024 (organoid from a breast cancer xenograft)
HCI-012 = system: HCI-012 (organoid from a breast cancer xenograft)
HCI-003.E2 = system: HCI-003.E2 (organoid from an ER-positive breast cancer xenograft)
MDA-MB-231 = system: MDA-MB-231
HCI-027 = system: HCI-027 (organoid from a triple-negative breast cancer xenograft)
HCI-019 = system: HCI-019 (organoid from a triple-negative breast cancer xenograft)
HCI-023 = system: HCI-023 (organoid from a triple-negative breast cancer xenograft)

CC[C@H](NC(=O)[C@H](C)NC)C(=O)N1C[C@@H](O)C[C@H]1Cc1c(-c2[nH]c3cc(F)ccc3c2C[C@@H]2C[C@H](O)CN2C(=O)[C@H](CC)NC(=O)[C@H](C)NC)[nH]c2cc(F)ccc12 [birinapant]
CTG-3D luminescence at 96 h
Details	12.5 pM	0.00025 µM	0.005 µM	0.1 µM	1 µM	10 µM	100 µM	625 fM
HCI-012, days in culture: 143	1.9	1.6	0.979	1.05	0.841	1.03	0.0063	1.91
HCI-012, days in culture: 162	2.25	2.01	0.325	0.156	0.152	0.249	0.00568	2.83
HCI-012, days in culture: 201	2.65	2.24	1.46	0.262	0.102	0.277	0.0538	1.77
HCI-019, days in culture: 110	1.9	2.21	1.18	0.993	0.634	1.01	0.351	1.87
HCI-019, days in culture: 131	2.64	3.89	2.09	3.03	1.34	2.65	0.638	3.16
HCI-019, days in culture: 152	2.72	2	2.1	1.49	0.853	1.05	0.336	1.84
HCI-023, days in culture: 111	1.31	0.929	0.368	0.0512	0.0433	0.0326	0.0111	1.35
HCI-023, days in culture: 128	1.21 ± 0.27	1.13 ± 0.3	0.23 ± 0.029	0.0897 ± 0.023	0.044 ± 0.011	0.0472 ± 0.011	0.006598 ± 1.9e-05	1.75 ± 0.32
HCI-024, days in culture: 105	1.4	1.17	0.375	0.175	0.139	0.177	0.0272	1.84
HCI-024, days in culture: 122	1.7	1.71	0.726	0.194	0.134	0.237	0.0303	2.58
HCI-024, days in culture: 163	1.8	1.36	0.525	0.315	0.255	0.23	0.0734	2.09
HCI-027, days in culture: 176	1.24	1.19	1.69	1.22	1.62	1.08	0.00679	1.18
HCI-027, days in culture: 194	1.58	1.02	0.983	0.99	1.14	1.31	0.129	1.53
HCI-027, days in culture: 201	1.64	1.19	1.14	0.985	0.933	1.13	0.11	1.76

CTG-3D luminescence at 96 h
Details	12.5 pM	0.00025 µM	0.005 µM	0.1 µM	1 µM	10 µM	100 µM	625 fM
HCI-003.E2	2.21 ± 0.88	2.35 ± 1	2.12 ± 0.56	2.07 ± 0.31	1.98 ± 0.44	2.07 ± 0.67	1.08 ± 0.29	2.08 ± 0.44
MDA-MB-231	4.36 ± 1.2	4.2 ± 1.2	4.35 ± 1.2	1.96 ± 1.1	2 ± 1.3	2.03 ± 1.1	2.41 ± 0.96	4.39 ± 1.2
